Reference: PMC10747975, “Synthesis, Antimalarial, Antileishmanial, and Cytotoxicity Activities and Preliminary In Silico ADMET Studies of 2-(7-Chloroquinolin-4-ylamino)ethyl Benzoate Derivatives” (Pharmaceuticals, 2023)
Where “and” joins values, the source holds several entries; their conditions need not be identical. Equal values may be shown once. Entries after “also recorded” stand apart in the source; their conditions may differ. Read-outs that look alike come from different tables or passages of the source.

How the values were obtained:
β-hematin formation = assay: Inhibition of β-hematin formation; type: biochemical; details: n = 3, read-out: IC50: Half maximal inhibitory concentration (βHF)
Description: The β-hematin (β-H) formation assay was performed as described previously. In 96-well microplates, hemin chloride solution (50 μL, 4 mM) was dissolved in dimethyl sulfoxide (DMSO) (5 mg mL^−1). We dissolved the compounds in DMSO and added different concentrations (100–5 mM) to the test wells (50 μL). As controls, 50 μL of water and 50 μL of DMSO were used. Experiments were conducted in triplicate. In order to generate β-H, acetate buffer (100 μL, 0.2 M, pH 4.4) was used. After 48 h at 37 °C, the plates were centrifuged (4000 RPM for 15 min, IEC-CENTRA, MP4R) (International Equipment Company, MA, USA). After discarding the supernatants, the pellet was washed twice with DMSO (200 μL) and dissolved in NaOH (200 μL, 0.2 N). […] The outcomes are expressed as percentages of inhibition of β-H formation.

[1] = system: Leishmania mexicana promastigotes; assay: L. mexicana promastigote growth inhibition; type: cell-based; details: growth/viability, Bel 21 strain
Description: The growth of L. mexicana was carried out as previously reported. L. mexicana (Bel 21 strain) promastigotes were cultured in liver infusion-tryptose (LIT) medium supplemented with 10% foetal bovine serum using continuous agitation at 29 °C, as reported previously. A growth curve was performed to evaluate the susceptibility of parasites to the different compounds at different concentrations. Parasites were counted daily using a Neubauer chamber. […] The final concentration of sterile DMSO in the parasite culture was 0.1%, not affecting the viability. […] FCCP (2 µM) was used as a positive control.

[2] = system: mitochondrial electrochemical membrane potential of Leishmania mexicana promastigotes; assay: Mitochondrial membrane potential of L. mexicana (rhodamine 123); type: cell-based; details: compounds 10 μM; b32 compares 4b, 4e with 4c
Description: The effect of different compounds on the mitochondrial membrane potential of L. mexicana promastigotes was evaluated using rhodamine 123, a fluorescent dye distributed inside mitochondria according to the electrochemical membrane potential, as reported previously. Briefly, 10^8 parasites were obtained by centrifugation at 600× g for 2 min and washed in phosphate-buffered saline solution (PBS) plus 1% glucose. The pellet was resuspended in the same buffer but in the presence of 20 µM rhodamine 123 for 45 min at 29 °C in the dark with mild agitation. Then, parasites were washed twice, resuspended in the same buffer, and transferred into a stirred cuvette. Measurements (excitation wavelength [λex], 488 nm; emission wavelength [λem], 530 nm) were made in a Hitachi 7000 spectrofluorometer at 29 °C (Hitachi High-Tech Corporation, Tokyo, Japan). FCCP (2 µM) was used as a positive control.

[3] = system: acidocalcisomes of Leishmania mexicana; assay: Acidocalcisome function (acridine orange accumulation); type: cell-based; details: results not shown
From the text: Considering this issue, we investigate another possible action of these compounds in these parasites. The acidocalcisomes are another relevant organelle characteristic of these trypanosomatids directly involved in bioenergetics and intracellular Ca^2+ regulation. These are acidic vacuoles rich in calcium and phosphates, engaged in the production and storage of pyrophosphates, and alternative energetic currency in addition to ATP, well known in trypanosomatids. For this reason, we also tested the possible effect of the compounds 4b, 4c, and 4e on acidocalcisomes, using acridine orange accumulation as a well-recognized method. This compound is released to the medium after parasite alkalization, denoting the loss of this organelle function. […] In this context, it is interesting to mention that in trypanosomatids, the disruption of intracellular Ca^2+ homeostasis drives parasite death, thus proposing that alteration of this function could be a rational therapeutic target.

Plasmodium berghei ANKA = assay: Four-day suppressive test in P. berghei-infected mice; type: in vivo; details: for Survival: number of mice that survived until Day 30 post-infection/total number of mice in the group / %P: percent parasitaemia (± SEM): 25 mg/kg ip; for Sd: survival days (± SEM): P. berghei-infected BALB/c mice, 25 mg/kg ip once daily for four days; for Sd: survival days (± SEM) / %P: percent parasitaemia (± SEM): n = 6; for %P: percent parasitaemia (± SEM): fourth day post-infection
Description: The compounds 4c and 4e were evaluated in mice infected with P. berghei ANKA, a strain of murine malaria susceptible to CQ(DPh). The compounds 4c and 4e were assessed on the fourth day post-infection by evaluating their ability to increase mouse survival and reduce parasitaemia in vivo compared to untreated controls. The compounds 4c, 4e (25 mg/kg), or CQ (25 mg/kg) were administered intraperitoneally (ip) once daily in mice following previously reported protocols. The Institute of Immunology Bioethical Committee approved the study (AS 161019). We followed the guidelines for Laboratory Animal Research of the National Research Council (ILAR).
For the experiments, male BALB/c mice, 18–22 g, were fed a commercial pellet diet under controlled conditions approved by the Institute of Immunology’s Ethics Committee. The animals were infected with the rodent malaria ANKA strain of Plasmodium berghei; 1 × 10^6 infected erythrocytes diluted in phosphate-buffered saline (PBS; 10 mM, pH 7.4, 0.1 mL) were injected […] into mice. Microscopic examination of Giemsa-stained smears was used to monitor parasitaemia.
Plasmodium berghei-infected red blood cells were injected into the caudal vein of BALB/c mice (18–23 g) (n = 6). Within two hours of infection, the active compounds from the in vitro test began to be administered (inhibition of β-H formation). Following dissolution in DMSO (0.1 M), the compounds were diluted with 2% saline-Tween 20 solution. The compounds (dose 25 mg kg^−1) were administered ip for four days. Giemsa-stained smears were examined on the fourth day to determine the parasite load. As a positive control, CQ (25 mg kg^−1) in DMSO (0.1 M) diluted with 2% saline-Tween 20 solution was used. A control group of mice infected with P. berghei incubated with saline solution was used to determine survival times. The results are expressed as a percentage of parasitaemia, and the survival curve was constructed based on the number of days of survival after treatment with the compound over that of mice infected without treatment.

[4] = In vitro toxicity on mouse red blood cells (haemolysis); type: cell-based; details: mouse RBCs, 37 °C
Description: To evaluate the in vitro toxicological effects of the compounds, we measured the haemoglobin released into the supernatant fraction of lysed red blood cells (RBCs). […] To obtain 100% RBCs, mouse blood was spun down at 800 g for 10 min and washed thrice with saline solution. […] RBCs were lysed in 1% saponin solution and were used as a positive control and a PBS solution as a negative control. The percentage of haemolysis was calculated using the formula: % Haemolysis = [(AT − AN)/(AP − AN)] × 100, where AT = mean absorbance of the test compound; AN = mean absorbance of the negative control; AP = mean absorbance of the positive control.

[5] = system: Leishmania mexicana promastigotes; parameters: method as in PMID 27458218; details: reference compound; cited from earlier work
[6] = 2% suspension of mouse red blood cells

In the case of COc1cc(C(=O)OCCNc2ccnc3cc(Cl)ccc23)cc(OC)c1OC [4g, 2-(7-Chloroquinolin-4-ylamino)ethyl-3,4,5-trimethoxybenzoate], the IC50 (β-hematin formation) is reported as 2.98 ± 0.17 µM.

O=C(OCCNc1ccnc2cc(Cl)ccc12)c1ccc(C(F)(F)F)cc1 [4m, 2-(7-Chloroquinolin-4-ylamino)ethyl-4-(trifluoromethyl)benzoate] showed an IC50 (β-hematin formation) of 3.24 ± 0.15 µM.

With O=C(OCCNc1ccnc2cc(Cl)ccc12)c1cccc(Cl)c1 [4h, 2-(7-Chloroquinolin-4-ylamino)ethyl-3-chlorobenzoate] the IC50 (β-hematin formation) was 6.85 ± 0.94 µM.

Work on COc1ccc(C(=O)OCCNc2ccnc3cc(Cl)ccc23)cc1 [4b, 2-(7-Chloroquinolin-4-ylamino)ethyl-4-methoxybenzoate] yielded an IC50 (β-hematin formation) of 3.09 ± 0.27 µM, an IC50 ([1]; Leishmania mexicana) of under 10 µM and an IC50 [1] of 8.09 ± 1.47 µM. For the same molecule, the “Effect on mitochondrial electrochemical membrane potential (rhodamine 123 fluorescence release)” value (shortened to “Effect … (rhodamine 123 fluorescence release)”) [2] was “rapid increase in the fluorescence; also recorded: significantly higher” and the “Effect on acidocalcisome functionality” value [3] was “none of these compounds showed any effect”.

For COc1ccc(OC)c(C(=O)OCCNc2ccnc3cc(Cl)ccc23)c1 [4e, 2-(7-Chloroquinolin-4-ylamino)ethyl-2,5-dimethoxybenzoate], the IC50 (β-hematin formation) was 1.81 ± 0.83 µM, the “Survival: number of mice that survived until Day 30 post-infection/total number of mice in the group” value (Plasmodium berghei ANKA) was 0/6 and the “Sd: survival days (± SEM)” value (Plasmodium berghei ANKA; 25 mg/kg) was 14.4 ± 1.20 days and 14.43 ± 1.20 days. For the same molecule, the “%P: percent parasitaemia (± SEM)” value (Plasmodium berghei ANKA) was 12.05 ± 2.36 %, the hemolysis at 45 min, 1 mM [4, 6] was 4.17 ± 0.21% and the IC50 ([1]; Leishmania mexicana) was under 10 µM. For the same molecule, the IC50 [1] was 5.67 ± 2.15 µM, the “Effect … (rhodamine 123 fluorescence release)” value [2] was “rapid increase in the fluorescence; also recorded: significantly higher” and the “Effect on acidocalcisome functionality” value [3] was “none of these compounds showed any effect”.

O=C(OCCNc1ccnc2cc(Cl)ccc12)c1ccccc1F [4i, 2-(7-Chloroquinolin-4-ylamino)ethyl-2-fluorobenzoate] showed an IC50 (β-hematin formation) of 4.01 ± 0.09 µM.

With CCN(CC)CCCC(C)Nc1ccnc2cc(Cl)ccc12 (stereo not drawn) [CQ(DPh), chloroquine bisphosphate, reference compound] the “Sd: survival days (± SEM)” value (Plasmodium berghei ANKA) was 30 days and the “%P: percent parasitaemia (± SEM)” value (Plasmodium berghei ANKA) was 0.28 ± 0.15%.

COc1ccc(C(=O)OCCNc2ccnc3cc(Cl)ccc23)c(OC)c1 [4d, 2-(7-Chloroquinolin-4-ylamino)ethyl-2,4-dimethoxybenzoate] gave an IC50 (β-hematin formation) of 8.59 ± 0.01 µM.

In the case of CC(C)=CCC/C(C)=C/CNCCNC1C2CC3CC(C2)CC1C3 (stereo not drawn) [SQ109], the IC50 [5] is given as 0.53 ± 0.06 µM.

OCCNc1ccnc2cc(Cl)ccc12 [compound 2, 2-(7-Chloroquinolin-4-ylamino)ethanol] showed an IC50 (β-hematin formation) of 5.06 ± 0.31 µM.

With Cc1ccc([N+](=O)[O-])c(C(=O)OCCNc2ccnc3cc(Cl)ccc23)c1 [4k, 2-(7-Chloroquinolin-4-ylamino)ethyl-5-methyl-2-nitrobenzoate] the IC50 (β-hematin formation) was 4.27 ± 0.67 µM.

In the case of COc1cccc(C(=O)OCCNc2ccnc3cc(Cl)ccc23)c1OC [4c, 2-(7-Chloroquinolin-4-ylamino)ethyl-2,3-dimethoxybenzoate], the IC50 (β-hematin formation) is reported as 2.1 ± 0.48 µM, the “Survival: number of mice that survived until Day 30 post-infection/total number of mice in the group” value (Plasmodium berghei ANKA) is reported as 0/6 and the “Sd: survival days (± SEM)” value (Plasmodium berghei ANKA; 25 mg/kg) is reported as 16.7 ± 2.16 days and 16.71 ± 2.16 days. The “%P: percent parasitaemia (± SEM)” value (Plasmodium berghei ANKA) was 9.86 ± 1.55 %, the hemolysis at 45 min, 1 mM [4, 6] was 4.73 ± 0.12% and the IC50 ([1]; Leishmania mexicana) was under 10 µM. For the same molecule, the IC50 [1] was 8.46 ± 1.86 µM, the “Effect … (rhodamine 123 fluorescence release)” value [2] was “rapid increase in the fluorescence; also recorded: lower” and the “Effect on acidocalcisome functionality” value [3] was “none of these compounds showed any effect”.

In the case of COc1cc(OC)c(C(=O)OCCNc2ccnc3cc(Cl)ccc23)cc1OC [4f, 2-(7-Chloroquinolin-4-ylamino)ethyl-2,4,5-trimethoxybenzoate], the IC50 (β-hematin formation) is reported as 3.29 ± 0.23 µM.

In the case of CCN(CC)CCCC(C)Nc1ccnc2cc(Cl)ccc12 (stereo not drawn) [CQ, chloroquine, reference compound], the “Survival: number of mice that survived until Day 30 post-infection/total number of mice in the group” value (Plasmodium berghei ANKA) is reported as 6/6 and the hemolysis at 45 min, 1 mM [4] is reported as 2.07 ± 0.17%.

Work on COc1ccccc1C(=O)OCCNc1ccnc2cc(Cl)ccc12 [4a, 2-(7-Chloroquinolin-4-ylamino)ethyl-2-methoxybenzoate] yielded an IC50 (β-hematin formation) of 4.16 ± 0.61 µM.

With CC(C)(C)c1ccc(C(=O)OCCNc2ccnc3cc(Cl)ccc23)cc1 [4l, 2-(7-Chloroquinolin-4-ylamino)ethyl-4-tert-butylbenzoate] the IC50 (β-hematin formation) was 3.57 ± 0.22 µM.

With Cc1cc(C)cc(C(=O)OCCNc2ccnc3cc(Cl)ccc23)c1 [4j, 2-(7-Chloroquinolin-4-ylamino)ethyl-3,5-dimethylbenzoate] the IC50 (β-hematin formation) was 3.16 ± 0.38 µM.
